Laboratory results reported in article PMC9144902, “Metal(II) Complexes of the Fluoroquinolone Fleroxacin: Synthesis, Characterization and Biological Profile” (Pharmaceutics, 2022).

Columns and labels:
CT DNA = test: Study of the DNA-interaction by cyclic voltammetry; format: binding, calf; conditions: for Epa(f), anodic potential / Epc(f), cathodic potential / Epa(b), anodic potential / Epc(b), cathodic potential: M(II)/M(I), 1:2 DMSO/buffer; for Epa(f), anodic potential / Epc(f), cathodic potential: absence of CT DNA; for Epa(b), anodic potential / Epc(b), cathodic potential: presence of CT DNA; for Kr/Kox, ratio of equilibrium DNA-binding constants (reduced/oxidized form): eq. S6
Procedure: Cyclic voltammetry was used to study the interaction of the complexes with CT DNA. An intercalative interaction will induce a positive shift for the electrochemical potential(s) of metal oxidation/reduction, whereas, in the case of electrostatic interaction, a negative shift in the potential(s) may occur. The cyclic voltammograms of the complexes in a 1:2 DMSO:buffer solution (0.33 mM) were recorded in the absence and presence of the CT DNA solution (Figure S13). The predominant electrochemical feature for all complexes is a positive shift in the potential in the presence of CT DNA (ΔEpc/a = (–30)–(+127) mV). Consequently, the intercalative nature of the interaction of the complexes with DNA can be inferred from the presented data.
In order to evaluate further the redox behavior of the complexes, the corresponding equilibrium constants were calculated by determining the ratio Kr/Kox in accordance to Equation (S6), where Kox and Kr are the DNA-binding constants for the oxidized and reduced form, respectively, of the metal ions. For all complexes, the Kr/Kox ratio is close to or above 1 (Table 7), showing the selective binding of DNA to the […] form of the complexes. […]
S3.3 Study of the DNA –interaction by cyclic vol ta mmetry
Cyclic voltammetr y can be also used in order to calculate the corresponding equilibrium constant for the redox process. The ratio of the DNA–binding constants for the reduced (K r) and oxidized forms (Kox) of t he complex es (Kr/Kox) w as calculat ed according t o eq. S6:
Δ = = 0.059 × lo gEE E K oxoo o (eq. S6) […]
where Eo and Eo are the formal potentials of M(II)/M(I) redox couple in the fully bound and […]
free complexes, respectivel y. Kox and Kr are the binding constants for the binding of the oxidized and reduced species to DNA, respectivel y [S8] . […]

EB–DNA adduct (CT DNA) = test: Competitive study with EB (EB–DNA fluorescence quenching); format: binding, calf; conditions: for Ksv, Stern–Volmer constant: EB–DNA adduct; for ΔI/Io, percentage of EB–DNA fluorescence quenching: [EB] = 20 μM, [DNA] = 26 μM, λexc 540 nm, λem 592 nm; for EB–DNA relative fluorescence emission intensity, % of the initial (I/Io): λemission = 592 nm, final value (up to), Figure S14; for kq, EB–DNA quenching constant: τo = 23 ns
[1] = molecular target: T1, bovine serum albumin (BSA) (Bos taurus, UniProt P02769); test: Albumin binding by tryptophan fluorescence emission quenching; conditions: for K(BSA), BSA-binding constant / kq(BSA), BSA-quenching constant: BSA 3 μM; for K(BSA), BSA-binding constant: buffer pH 7.0, Scatchard equation; for kq(BSA), BSA-quenching constant: buffer pH 7.0, λexc 295 nm, Stern–Volmer, τ0 = 10^–8 s; for BSA fluorescence, % of the initial fluorescence intensity (I/Io): λem,max = 342 nm, final value of titration (Figure S11)
T1 construct: purchased
Method in brief: (§1)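 Compound binding to serum albumin monitored by quenching of albumin tryptophan fluorescence emission. Quenching constants (kq) derived from Stern–Volmer equation; binding constants (K) from Scatchard equation.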

[2] = molecular target: T2, human serum albumin (HSA) (Homo sapiens, UniProt P02768); test: as above; conditions: for K(HSA), HSA-binding constant / kq(HSA), HSA-quenching constant: HSA 3 μM; for K(HSA), HSA-binding constant: buffer pH 7.0, Scatchard equation; for kq(HSA), HSA-quenching constant: buffer pH 7.0, λexc 295 nm, Stern–Volmer, τ0 = 10^–8 s; for HSA fluorescence, % of the initial fluorescence intensity (I/Io): λem,max = 351 nm, final value of titration (Figure S10)
T2 construct: purchased
Method in brief: as §1

T2 sequence (P02768 25-609): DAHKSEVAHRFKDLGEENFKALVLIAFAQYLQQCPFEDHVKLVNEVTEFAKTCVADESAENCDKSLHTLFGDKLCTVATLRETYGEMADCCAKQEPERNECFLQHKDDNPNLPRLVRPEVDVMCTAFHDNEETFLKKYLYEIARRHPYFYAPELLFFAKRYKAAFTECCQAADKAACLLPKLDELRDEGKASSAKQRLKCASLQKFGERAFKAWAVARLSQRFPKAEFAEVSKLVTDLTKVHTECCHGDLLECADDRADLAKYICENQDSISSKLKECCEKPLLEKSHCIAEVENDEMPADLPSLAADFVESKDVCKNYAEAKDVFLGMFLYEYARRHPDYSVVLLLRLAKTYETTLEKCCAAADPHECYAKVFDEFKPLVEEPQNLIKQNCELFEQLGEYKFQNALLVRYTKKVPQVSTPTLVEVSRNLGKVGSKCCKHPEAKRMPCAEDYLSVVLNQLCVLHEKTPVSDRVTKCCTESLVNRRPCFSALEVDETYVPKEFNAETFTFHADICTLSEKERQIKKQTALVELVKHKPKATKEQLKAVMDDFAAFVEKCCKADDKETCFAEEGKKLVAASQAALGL
T1 sequence (P02769 25-607): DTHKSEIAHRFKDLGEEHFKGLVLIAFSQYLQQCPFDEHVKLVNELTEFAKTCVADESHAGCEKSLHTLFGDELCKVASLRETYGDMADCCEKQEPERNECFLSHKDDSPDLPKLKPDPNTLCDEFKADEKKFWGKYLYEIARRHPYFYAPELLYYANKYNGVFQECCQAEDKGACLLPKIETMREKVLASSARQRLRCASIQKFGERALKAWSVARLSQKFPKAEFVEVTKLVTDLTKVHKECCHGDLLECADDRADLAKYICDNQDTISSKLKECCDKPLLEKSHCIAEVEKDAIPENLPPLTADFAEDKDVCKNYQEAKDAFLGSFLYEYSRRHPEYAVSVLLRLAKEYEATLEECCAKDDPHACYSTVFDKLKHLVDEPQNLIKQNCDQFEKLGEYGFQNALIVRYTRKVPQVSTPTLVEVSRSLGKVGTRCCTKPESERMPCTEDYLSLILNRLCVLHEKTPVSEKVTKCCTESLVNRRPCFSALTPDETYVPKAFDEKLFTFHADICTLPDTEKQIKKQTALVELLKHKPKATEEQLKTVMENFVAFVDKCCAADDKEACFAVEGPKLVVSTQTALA

SMILES | Epa(f), anodic potential (CT DNA) [mV] | Epc(f), cathodic potential (CT DNA) [mV] | Epa(b), anodic potential (CT DNA) [mV] | Epc(b), cathodic potential (CT DNA) [mV] | Kr/Kox, ratio of equilibrium DNA-binding constants (reduced/oxidized form) (CT DNA) | Ksv, Stern–Volmer constant (EB–DNA adduct (CT DNA)) | ΔI/Io, percentage of EB–DNA fluorescence quenching (EB–DNA adduct (CT DNA)) [%] | EB–DNA relative fluorescence emission intensity, % of the initial (I/Io) (EB–DNA adduct (CT DNA)) [%] | kq, EB–DNA quenching constant (EB–DNA adduct (CT DNA)) | K(BSA), BSA-binding constant [1] | kq(BSA), BSA-quenching constant [1] | BSA fluorescence, % of the initial fluorescence intensity (I/Io) [1] [%] | K(HSA), HSA-binding constant [2] | kq(HSA), HSA-quenching constant [2] | HSA fluorescence, % of the initial fluorescence intensity (I/Io) [2] [%]
CN1CCN(c2c(F)cc3c(=O)c(C(=O)[O-])cn(CCF)c3c2F)CC1.CN1CCN(c2c(F)cc3c(=O)c(C(=O)[O-])cn(CCF)c3c2F)CC1.[Ni+2].c1cnc2c(c1)ccc1cccnc12 [complex 19, [Ni(flrx)2(phen)]] | −489 | −706 | −460 | −718 | 1.15 | 3.18(±0.14) × 10^5 M^–1 | 68.1 | 31.9 | 1.38(±0.05) × 10^13 M^−1s^−1 | 8.01(±0.28) × 10^4 M^−1 | 1.39(±0.04) × 10^13 M^−1s^−1 | 25.6 | 6.65(±0.15) × 10^4 M^−1 | 6.67(±0.18) × 10^12 M^−1s^−1 | 43.9
CN1CCN(c2c(F)cc3c(=O)c(C(=O)[O-])cn(CCF)c3c2F)CC1.CN1CCN(c2c(F)cc3c(=O)c(C(=O)[O-])cn(CCF)c3c2F)CC1.[Co+2].c1ccc(Nc2ccccn2)nc1 [complex 16, [Co(flrx)2(bipyam)]] | −466 | −729 | −445 | −741 | 1.08 | 3.77(±0.12) × 10^5 M^–1 | 70.7 | 29.3 | 1.64(±0.05) × 10^13 M^−1s^−1 | 1.44(±0.04) × 10^5 M^−1 | 1.98(±0.05) × 10^13 M^−1s^−1 | 22.2 | 9.61(±0.36) × 10^4 M^−1 | 9.35(±0.22) × 10^12 M^−1s^−1 | 36.1
CN1CCN(c2c(F)cc3c(=O)c(C(=O)[O-])cn(CCF)c3c2F)CC1.CN1CCN(c2c(F)cc3c(=O)c(C(=O)[O-])cn(CCF)c3c2F)CC1.[Mn+2].c1cnc2c(c1)ccc1cccnc12 [complex 11, [Mn(flrx)2(phen)]] | −501 | −706 | −499 | −700 | 1.07 | 1.83(±0.03) × 10^5 M^–1 | 76.7 | 23.3 | 7.94(±0.14) × 10^12 M^−1s^−1 | 1.09(±0.03) × 10^5 M^−1 | 1.65(±0.04) × 10^13 M^−1s^−1 | 25.2 | 1.01(±0.04) × 10^5 M^−1 | 1.03(±0.01) × 10^13 M^−1s^−1 | 34.2
CN1CCN(c2c(F)cc3c(=O)c(C(=O)[O-])cn(CCF)c3c2F)CC1.CN1CCN(c2c(F)cc3c(=O)c(C(=O)[O-])cn(CCF)c3c2F)CC1.[Mn+2].c1ccc(-c2ccccn2)nc1 [complex 9, [Mn(flrx)2(bipy)]] | −475 | −701 | −495 | −684 | 0.97 | 3.31(±0.07) × 10^5 M^–1 | 73.8 | 26.2 | 1.44(±0.03) × 10^13 M^−1s^−1 | 1.39(±0.05) × 10^5 M^−1 | 2.45(±0.09) × 10^13 M^−1s^−1 | 18.0 | 6.36(±0.31) × 10^4 M^−1 | 8.09(±0.17) × 10^12 M^−1s^−1 | 39.8
CN1CCN(c2c(F)cc3c(=O)c(C(=O)[O-])cn(CCF)c3c2F)CC1.CN1CCN(c2c(F)cc3c(=O)c(C(=O)[O-])cn(CCF)c3c2F)CC1.[Cu+2] [complex 1, [Cu(flrx)2]] | −504 | −725 | −462 | −735 | 1.31 | 2.18(±0.06) × 10^5 M^–1 | 62.2 | 37.8 | 9.47(±0.03) × 10^12 M^−1s^−1 | 7.19(±0.21) × 10^4 M^−1 | 1.87(±0.09) × 10^13 M^−1s^−1 | 17.3 | 8.39(±0.27) × 10^4 M^−1 | 1.09(±0.08) × 10^13 M^−1s^−1 | 33.3
CN1CCN(c2c(F)cc3c(=O)c(C(=O)[O-])cn(CCF)c3c2F)CC1.[Cl-].[Cu+2].c1ccc(-c2ccccn2)nc1 [complex 6, [Cu(flrx)(bipy)Cl]] | −450 | −710 | −323 | −740 | 2.28 | 2.03(±0.05) × 10^5 M^–1 | 61.9 | 38.1 | 8.84(±0.21) × 10^12 M^−1s^−1 | 6.12(±0.33) × 10^4 M^−1 | 1.59(±0.07) × 10^13 M^−1s^−1 | 25.7 | 1.02(±0.03) × 10^5 M^−1 | 6.08(±0.06) × 10^12 M^−1s^−1 | 48.5
